{"source": "patent US9855209B1", "about": "“Anti-bacterial mouthwash” (KING ABDULAZIZ UNIVERSITY, priority 2017, dated 2018)", "tested_on": "Salmonella enterica subsp. Enterica serovar Typhimurium (ATCC 29629, TA 1535)", "experiment": "Ames test", "type": "cell-based", "conditions": "positive control", "source_text": "The Ames test was followed according to a previously reported procedure (Ames et al, 1973; Mortelmans and Zeiger, 2000). Briefly, the test organism Salmonella enterica subsp. Enterica serovar Typhimurium (ATCC® 29629-Strain Designations: TA 1535), an auxotrophic mutant, was provided by ATCC, Manassas, USA. This auxotrophic isolate requires histidine for its growth, due to a mutation in its DNA. Substances to be tested for their mutagenesis, could be added in the histidine-free medium of the test organism, to monitor their ability to reverse back the mutated Salmonella typhimurium to a prototrophic state, enabling it to grow. The anti-bacterial mouthwash was incorporated in the histidine-free medium used in the Ames test, at four different concentrations namely, 1/100×, 1×, 1.5×, and 2× (where X is the dilution used in mouth rinsing experiments), while another batch of the medium was deprived of the Mouthwash substance. Ethidium bromide, an expected positive inducer of mutations in the test organism, was incorporated in another batch of the same histidine-free medium at two concentrations namely, 20 and 200 nmole. The S. Typhimurium was cultured in triplicate onto the 4 differently supplemented media, and on the 5th control medium that was deprived of supplementation, to observe the growth of this test organism. The bacterium was spread over these media with small amounts of histidine that helps in the initiation of the growth, and once this amino acid is depleted, only the mutated cells by the supplemented substance will be able to synthesize their histidine, and to continue their growth. Thus, mutagenicity is determined in this research from the proportion of the average colony forming units formed on triplicate of the supplemented medium with the anti-bacterial mouthwash versus that formed on triplicate of the non-supplemented medium, with the growth on Ethidium bromide acting as a positive control of the test.\nThe results of the Ames test in relation to reversion of the S. Typhimurium test organism from its auxotrophic to prototrophic nature is shown in Table 4.", "data": [{"smiles": "CC[n+]1c(-c2ccccc2)c2cc(N)ccc2c2ccc(N)cc21", "note": "[Ethidium bromide]", "values": [{"measurement": "Mean % increase in S. Typhimurium CFU count of triplicate relative to mean triplicate count on minimal Histidine-supplemented medium", "setting": "20 nmol/plate", "value": 0, "unit": "%"}, {"measurement": "Mean % increase in S. Typhimurium CFU count of triplicate relative to mean triplicate count on minimal Histidine-supplemented medium", "setting": "20 nmol/plate, listed as Eth", "value": 0.0, "unit": "%"}, {"measurement": "Mean % increase in S. Typhimurium CFU count of triplicate relative to mean triplicate count on minimal Histidine-supplemented medium", "setting": "200 nmol/plate, apparent reversion of mutation (P<0.05)", "value": 12.5, "unit": "%"}]}]}
